Source: PMC7447632, “Highly functionalized β-lactams and 2-ketopiperazines as TRPM8 antagonists with antiallodynic activity” (Scientific Reports, 2020)
Counter-ions that a name gives are not always drawn. Like-named read-outs stand apart in the source and are kept apart here.

Columns and labels:
Format in all cases: cell-based
hTRPV1 channels = target: T1, hTRPV1 channels (Homo sapiens, UniProt Q8NER1); experiment: Ca2+ microfluorometry in HEK cells expressing hTRPV1 (capsaicin); conditions: 1 µM capsaicin; for TRPV1 Blockade (%) 5 µM: 5 µM compound; for TRPV1 Blockade (%) 50 µM: 50 µM compound
T1 construct: expressed in transfected cells; host or cells: HEK (stably transfected)
T1 sequence (Q8NER1 whole entry): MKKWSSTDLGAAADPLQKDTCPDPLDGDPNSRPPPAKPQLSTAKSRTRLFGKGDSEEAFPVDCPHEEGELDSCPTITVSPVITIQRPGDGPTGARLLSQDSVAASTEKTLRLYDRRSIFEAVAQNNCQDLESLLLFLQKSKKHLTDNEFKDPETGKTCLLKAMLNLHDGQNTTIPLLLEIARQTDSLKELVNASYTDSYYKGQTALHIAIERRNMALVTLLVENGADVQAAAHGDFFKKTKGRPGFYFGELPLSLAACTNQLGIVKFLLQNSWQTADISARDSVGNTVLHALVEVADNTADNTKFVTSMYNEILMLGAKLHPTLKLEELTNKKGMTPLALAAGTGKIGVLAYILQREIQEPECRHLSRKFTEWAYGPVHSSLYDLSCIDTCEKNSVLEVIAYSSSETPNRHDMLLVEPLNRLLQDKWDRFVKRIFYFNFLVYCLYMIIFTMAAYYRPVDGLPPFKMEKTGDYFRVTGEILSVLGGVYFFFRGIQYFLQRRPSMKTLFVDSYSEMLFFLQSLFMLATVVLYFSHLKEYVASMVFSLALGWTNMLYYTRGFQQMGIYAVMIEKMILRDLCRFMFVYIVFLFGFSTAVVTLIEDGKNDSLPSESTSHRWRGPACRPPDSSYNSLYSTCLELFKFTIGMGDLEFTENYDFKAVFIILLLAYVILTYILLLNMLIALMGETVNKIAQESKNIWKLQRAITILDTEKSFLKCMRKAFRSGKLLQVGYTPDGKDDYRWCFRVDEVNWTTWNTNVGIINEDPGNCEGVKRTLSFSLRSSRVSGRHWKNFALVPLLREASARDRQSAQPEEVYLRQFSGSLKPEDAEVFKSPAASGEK
Method: β-Lactam and 2-ketopiperazine derivatives were also assayed for their activity in cell expressing hTRPV1 channels. No significant antagonist activity was measured for any derivatives within both chemotypes (Supplementary Tables S1, S2, and Fig. S3), indicating their selectivity for TRPM8 channels.
(§1) Human embryonic kidney cell line (HEK) stably transfected with rTRPM8 or h-TRPV1 were used as previously described. Briefly, cells were seeded in 96-well plates at a cell density of 30,000 cells 2 days before treatment. Buffer used was HBBS (in mM): 138 NaCl, 5.33 KCl, 1.26 CaCl2, 0.5 MgCl-6H2O, 0.4 MgSO4-7H2O, 4 NaHCO3 0.44 KH2PO4, 0.3 Na2HPO4, pH 7.4. The day of treatment the medium was replaced with 100 µL of the dye loading solution Fluo-4 NW supplemented with probenecid 2.5 mM. After incubation, plates were transferred to a fluorescence plate reader (Polastar BMG). In the experimental protocol, the baseline fluorescence was recorded ([…]) for 3 cycles. After, vehicle, compound at different concentrations and the corresponding antagonist, 10 µM AMTB for TRPM8 or 10 µM Ruthenium Red for TRPV1 were added to the well. Fluorescence intensity was recorded during 7 cycles more. Finally, the agonist 100 µM menthol for TRPM8 or 1 µM capsaicin for TRPV1 was added and fluorescence intensity was recorded during 10 cycles more.
Table S1. Activity at hTRPV1 of β–lactams derived from phenylalaninol conjugates
Compd. Isomer Isomer TRPV1 Blockade (%)
Table S2. Activity at hTRPV1 of 2-ketopiperazines derived from phenylalaninol

rat TRPM8 channel = target: T2, rat TRPM8 channel (Rattus norvegicus, UniProt Q8R455); experiment: Ca2+ microfluorometry, menthol-induced Ca2+ influx in HEK293 cells expressing rat TRPM8; conditions: 100 µM menthol, HEK-rTRPM8; for % Blockade 5 µM: 5 µM compound; for % Blockade 50 µM: 50 µM compound; for IC50: Ca2+ microfluorometry
T2 construct: expressed in transfected cells; host or cells: HEK293 (stably transfected)
T2 sequence (Q8R455 whole entry): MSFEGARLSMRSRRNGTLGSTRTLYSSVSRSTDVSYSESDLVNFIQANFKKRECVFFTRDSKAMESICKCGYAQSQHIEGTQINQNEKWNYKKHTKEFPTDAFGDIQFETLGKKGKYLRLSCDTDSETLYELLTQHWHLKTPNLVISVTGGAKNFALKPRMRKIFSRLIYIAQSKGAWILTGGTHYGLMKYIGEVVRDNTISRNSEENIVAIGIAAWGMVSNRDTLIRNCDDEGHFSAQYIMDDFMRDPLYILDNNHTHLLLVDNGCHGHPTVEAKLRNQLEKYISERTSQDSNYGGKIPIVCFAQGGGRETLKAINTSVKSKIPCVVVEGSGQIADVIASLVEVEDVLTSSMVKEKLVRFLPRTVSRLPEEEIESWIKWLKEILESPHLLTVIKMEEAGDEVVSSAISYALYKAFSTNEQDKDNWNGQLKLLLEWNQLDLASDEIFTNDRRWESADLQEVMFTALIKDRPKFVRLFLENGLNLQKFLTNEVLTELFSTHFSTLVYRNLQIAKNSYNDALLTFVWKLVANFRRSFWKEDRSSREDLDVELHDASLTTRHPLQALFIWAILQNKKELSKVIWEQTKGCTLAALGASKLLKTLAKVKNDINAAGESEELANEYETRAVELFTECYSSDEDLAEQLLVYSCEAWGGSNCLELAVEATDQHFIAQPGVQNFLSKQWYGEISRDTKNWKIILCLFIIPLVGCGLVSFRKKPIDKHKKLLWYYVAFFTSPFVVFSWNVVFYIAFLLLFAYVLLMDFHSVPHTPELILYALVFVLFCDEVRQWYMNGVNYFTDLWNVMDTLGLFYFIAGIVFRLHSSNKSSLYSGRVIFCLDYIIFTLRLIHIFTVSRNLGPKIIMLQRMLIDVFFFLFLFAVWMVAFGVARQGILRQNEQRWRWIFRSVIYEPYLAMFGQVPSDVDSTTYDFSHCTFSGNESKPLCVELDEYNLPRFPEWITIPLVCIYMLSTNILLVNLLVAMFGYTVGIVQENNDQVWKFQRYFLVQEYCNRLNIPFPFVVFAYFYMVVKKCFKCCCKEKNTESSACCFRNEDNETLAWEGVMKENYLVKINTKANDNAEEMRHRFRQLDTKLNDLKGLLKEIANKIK
Method: The ability to inhibit menthol-induced Ca^2+ intracellular influx into the cytosol on HEK293 cells heterologously expressing the rat TRPM8 channel was measured and compared to that of AMTB, a well-known TRPM8 antagonist. Representative recordings of fluorescence obtained in microfluorometry experiments for selected compounds are in Supplementary Fig. S3.
as §1
The degree of inhibition of TRPM8 channel gating was calculated by comparison to calcium increase signal elicited by test substances and menthol at 100 µM. Decrease of menthol signal was expressed as percentage of inhibition (%). All data are expressed as mean ± standard deviation (SD). Each condition was assessed by triplicate (n = 3) in 3 independent experiments (N = 3). Z-factor was calculated in each assay using the following equation: […]. In all the experiments Z-factor was ≥ 0.5. To calculate IC50, normalized responses (%) versus log [µM] were adjusted to a non-linear fit with variable slope, a four-parameter dose–response curve following curve Y = 100/(1 + 10^((Log IC50-X)*HillSlope)) where […].

[1] = test system: MDA-MB-231 (breast adenocarcinoma); experiment: SRB cytotoxicity assay, MDA-MB-231; conditions: for TGI MDA-MB-231: total growth inhibition; for GI50 / CC50: Homo sapiens; for CC50: read-out: LC50 MDA-MB-231
Method: (§2) Human tumor cell lines used in this study were purchased from the ATCC. A-549 (CCL-185), lung carcinoma; HT-29 (HTB-38), colorectal adenocarcinoma; MDA-MB-231 (HTB-26), breast adenocarcinoma; PSN1, pancreas adenocarcinoma.
(§3) All cell lines were maintained in DMEM (Dulbecco’s Modified Eagle's Medium) culture medium supplemented with 10% FBS (Fetal Bovine Serum), 100 Units/mL penicillin/streptomycin at 37 °C, 5% CO2 and 95% humidity.
(§4) Triplicate cultures were incubated for 72 h in the presence or absence of test compounds in dose–response curves (10 concentrations, typically ranging from 10 to 0.0026 µg/mL). A colorimetric assay using sulforhodamine B (SRB) was adapted for quantitative measurement of cell growth and cytotoxicity. A more detailed information on this assay is provides in the supplementary information. GI50 is the compound concentration that produces 50% inhibition on cell growth as compared to control cells.
(§5) In vitro bioassays for the detection of antitumor activity
(§6) The aim of this assay is to evaluate the in vitro cytostatic (ability to delay or arrest tumor cell growth) or cytotoxic (ability to kill tumor cells) activity of the samples […]
(§7) Name Nº ATCC Species Tissue Characteristics
(§8) A549 CCL-185 human lung lung carcinoma (NSCLC)
(§9) HT29 HTB-38 human colon colorectal adenocarcinoma
(§10) MDA-MB-231 HTB-26 human breast breast adenocarcinoma
(§11) PSN1 CRM-CRL-3211 human pancreas pancreas adenocarcinoma […]
(§12) A colorimetric assay, using Sulforhodamine B (SRB) reaction has been adapted to provide a quantitative measurement of cell growth and viability (following the technique described by Skehan et al. J. Natl. Cancer Inst. 1990, 82, 1107-1112 […]
(§13) This form of assay employs 96-well cell culture microplates following the standards of the American National Standards Institute and the Society for Laboratory […]
(§14) used in this study were obtained from the American Type Culture Collection (ATCC) and derive from different types of human cancer.
(§15) A549, HT29, MDA-MB-231 and PSN1 cells were maintained in Dulbecco’s
(§16) Modified Eagle Medium (DMEM) supplemented with 10% Fetal Bovine Serum (FBS), 2mM L-glutamine, 100 U/mL penicillin, and 100 U/mL streptomycin at 37 °C, 5% CO2 and 98% humidity. For the experiments, cells were harvested from subconfluent cultures using trypsinization and resuspended in fresh medium before counting and […]
(§17) A549, HT29, MDA-MB-231 and PSN1 cells were seeded in 96 well microtiter plates, at 5000 cells per well in aliquots of 150 µL, and allowed to attach to the plate surface for 18 hours (overnight) in drug free medium. After that, one control (untreated) plate of each cell line was fixed (as described below) and used for time zero reference value. Culture plates were then treated with test compounds (50 µL aliquots of 4X stock […]
(§18) solutions in complete culture medium plus 4% DMSO) using ten 2/5 serial dilutions (concentrations ranging from 10 to 0.003 µg/mL) and triplicate cultures (1% final concentration in DMSO). After 72 hours treatment, the antitumor effect was measured by using the SRB methodology: Briefly, cells were washed twice with PBS, fixed for 15 min in 1% glutaraldehyde solution at room temperature, rinsed twice in PBS, and stained in 0.4% SRB solution for 30 min at room temperature. Cells were then rinsed several times with 1% acetic acid solution and air-dried at room temperature. SRB was then extracted in 10 mM trizma base solution and the absorbance measured in an automated spectrophotometric plate reader at 490 nm.
(§19) Effects on cell growth and survival were estimated by applying the NCI algorithm (Boyd MR and Paull KD. Drug Dev. Res. 1995, 34, 91-109, DOI:10.1002/ddr.430340203). The values obtained in triplicate cultures were fitted by nonlinear regression to a four-parameters logistic curve by nonlinear regression analysis. . Using the absorbance measurements [time zero, (Tz), control growth, (C), and test growth in the presence of drug at the ten concentration levels (Ti)], the […]

[2] = test system: HT29 (colorectal adenocarcinoma); experiment: SRB cytotoxicity assay, HT29; conditions: for TGI HT29: total growth inhibition; for GI50 / CC50: Homo sapiens; for CC50: read-out: LC50 HT29
Method: as §2, §3, §4, §5, §6, §7, §8, §9, §10, §11, §12, §13, §14, §15, §16, §17, §18, §19

[3] = test system: PSN1 (pancreas adenocarcinoma); experiment: SRB cytotoxicity assay, PSN1; conditions: for TGI PSN1: total growth inhibition; for GI50 / CC50: Homo sapiens; for CC50: read-out: LC50 PSN1
Method: as §2, §3, §4, §5, §6, §7, §8, §9, §10, §11, §12, §13, §14, §15, §16, §17, §18, §19

[4] = test system: A549 (lung carcinoma, NSCLC); experiment: SRB cytotoxicity assay, A549; conditions: for TGI A549: total growth inhibition; for GI50 / CC50: Homo sapiens; for CC50: read-out: LC50 A549
Method: as §2, §3, §4, §5, §6, §7, §8, §9, §10, §11, §12, §13, §14, §15, §16, §17, §18, §19

| SMILES | TRPV1 Blockade (%) 5 µM (hTRPV1 channels) [%] | TRPV1 Blockade (%) 50 µM (hTRPV1 channels) [%] | % Blockade 5 µM (rat TRPM8 channel) [%] | % Blockade 50 µM (rat TRPM8 channel) [%] | IC50 (rat TRPM8 channel) [nM] | further results |
| --- | --- | --- | --- | --- | --- | --- |
| O=C(N[C@@H](Cc1ccccc1)CN1C(=O)CC1(Cc1ccccc1)C(=O)OCc1ccccc1)OCc1ccccc1 (stereo partly shown) [Compound 12ab] | 9.2±1.4 | 15.3±2.8 | 92.3 ± 6.2 | 100.0 ± 3.1 | 1500 ± 1200 | – |
| O=C(OCc1ccccc1)C(Cc1ccccc1)N1C[C@H](Cc2ccccc2)N(C(=O)OCc2ccccc2)CC1=O (stereo partly shown) [Compound 13ab] | 7.2±3.8 | 8.1±3.4 | 48.9 ± 6.2 | 102.1 ± 7.7 | – | TGI MDA-MB-231 ([1]; 72 h, SRB, unit inferred): > 17800 nM; GI50 ([1]; MDA-MB-231, 72 h, SRB): > 17800 nM; CC50 ([1]; MDA-MB-231, 72 h, SRB, unit inferred): > 17800 nM; TGI HT29 ([2]; 72 h, SRB, unit inferred): > 17800 nM; GI50 ([2]; HT-29, 72 h, SRB): > 17800 nM; CC50 ([2]; HT-29, 72 h, SRB, unit inferred): > 17800 nM; TGI PSN1 ([3]; 72 h, SRB, unit inferred): > 17800 nM; GI50 ([3]; PSN1, 72 h, SRB): > 17800 nM; CC50 ([3]; PSN1, 72 h, SRB, unit inferred): > 17800 nM; TGI A549 ([4]; 72 h, SRB, unit inferred): > 17800 nM; GI50 ([4]; A549, 72 h, SRB): > 17800 nM; CC50 ([4]; A549, 72 h, SRB, unit inferred): > 17800 nM |
| O=C(N[C@H](Cc1ccccc1)CN1C(=O)CC1(Cc1ccccc1)C(=O)OCc1ccccc1)OCc1ccccc1 (stereo partly shown) [Compound 14ab] | 4.1±2.4 | 8.7±3.5 | 91.0 ± 4.3 | 103 ± 2.7 | 1200 ± 1000 | – |
| COC(=O)C(Cc1ccccc1)N1C[C@H](Cc2ccccc2)N(C(=O)OCc2ccccc2)CC1=O (stereo partly shown) [Compound 20ab] | 12.2±3.1 | 19.3±1.2 | 22.3 ± 5.5 | 61.0 ± 5.6 | 18800 ± 1700 | – |
| O=C(OCc1ccccc1)C(Cc1ccccc1)N1C[C@H](Cc2ccccc2)N(C(=O)OCc2ccccc2)CC1=O (stereo partly shown) [Compound 21ab] | 6.2±3.1 | 11.8±1.8 | 70.0 ± 6.8 | 92.5 ± 4.3 | 2000 ± 1500 | – |
| CC1C(=O)N(C[C@H](Cc2ccccc2)NC(=O)OCc2ccccc2)[C@@]1(Cc1ccccc1)C(=O)OCc1ccccc1 (stereo partly shown) [Compound 25ab] | 3.4±1.7 | 4.3±1.1 | 68.2 ± 5.6 | 89.2 ± 9.2 | 3900 ± 1900 | – |
| C[C@H]1C(=O)N(C(Cc2ccccc2)C(=O)OCc2ccccc2)C[C@H](Cc2ccccc2)N1C(=O)OCc1ccccc1 (stereo partly shown) [Compound 26ab] | 6.2±1.8 | 7.3±3.2 | 93.5 ± 3.4 | 102.4 ± 1.5 | 2400 | – |
| CC1C(=O)N(C[C@@H](Cc2ccccc2)NC(=O)OCc2ccccc2)[C@@]1(Cc1ccccc1)C(=O)OCc1ccccc1 (stereo partly shown) [Compound 31ab] | 5.7±2.3 | 12.1±1.3 | 91.0 ± 4.3 | 105.0 ± 5.5 | 1600 ± 1300 | – |
| C[C@H]1C(=O)N(C(Cc2ccccc2)C(=O)OCc2ccccc2)C[C@@H](Cc2ccccc2)N1C(=O)OCc1ccccc1 (stereo partly shown) [Compound 32ab] | 4.1±2.3 | 6.3±2.3 | 47.4 ± 6.8 | 115.1 ± 4.5 | 17400 ± 1600 | – |
| CC(C(=O)OCc1ccccc1)N1CC(Cc2ccccc2)N(C(=O)OCc2ccccc2)CC1=O (stereo not shown) [Compound 38ab] | – | – | 66.0 ± 3.3 | 105.5 ± 3.2 | 2500 ± 1300 | – |
| C[C@@H]1C(=O)N(C[C@@H](Cc2ccccc2)NC(=O)OCc2ccccc2)[C@]1(C)C(=O)OCc1ccccc1 [Compound 39a] | 2.6±0.9 | 3.2±2.777 | 46.6 ± 11.1 | 100.4 ± 3.5 | 6200 ± 1100 | – |
| CC(C(=O)OCc1ccccc1)N1C[C@@H](Cc2ccccc2)N(C(=O)OCc2ccccc2)[C@H](C)C1=O (stereo partly shown) [Compound 40ab] | – | – | 79.1 ± 3.3 | 107.9 ± 2.5 | 800 ± 1200 | – |
| COc1cccc2c1C(=O)c1c(O)c3c(c(O)c1C2=O)C[C@@](O)(C(=O)CO)C[C@@H]3O[C@H]1C[C@H](N)[C@H](O)[C@H](C)O1 [Doxorubicin.HCl, reference compound] | – | – | – | – | – | TGI MDA-MB-231 ([1]; 72 h, SRB, unit inferred): 410 nM; CC50 ([1]; MDA-MB-231, 72 h): 980 nM; GI50 ([1]; MDA-MB-231, 72 h, SRB): 170 nM; TGI HT29 ([2]; 72 h, SRB, unit inferred): 640 nM; CC50 ([2]; HT-29, 72 h): > 17200 nM; GI50 ([2]; HT-29, 72 h, SRB): 190 nM; TGI PSN1 ([3]; 72 h, SRB, unit inferred): 480 nM; CC50 ([3]; PSN1, 72 h): 1620 nM; GI50 ([3]; PSN1, 72 h, SRB): 170 nM; TGI A549 ([4]; 72 h, SRB, unit inferred): 640 nM; CC50 ([4]; A549, 72 h): 2930 nM; GI50 ([4]; A549, 72 h, SRB): 240 nM |
